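How tested: cells in 96-well plates exposed to compound for 48 hours at five concentrations. At the GI50, growth is halved.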 Active and inactive are the calls of the source. Rule as the data show it: active = GI50 up to about 1.1 µM and inactive = higher.
Legend:
Test in all cases: NCI tumour cell line growth inhibition, 48 h
DU-145 = test system: DU-145
LOX IMVI = test system: LOX IMVI
NCI-H522 = test system: NCI-H522
MDA-MB-435 = test system: MDA-MB-435
MDA-N = test system: MDA-N
SNB-19 = test system: SNB-19
SN12C = test system: SN12C
TK-10 = test system: TK-10
OVCAR-3 = test system: OVCAR-3
SK-MEL-5 = test system: SK-MEL-5
HL-60 = test system: HL-60
IGROV-1 = test system: IGROV-1
KM12 = test system: KM12
NCI-H226 = test system: NCI-H226
OVCAR-8 = test system: OVCAR-8
HOP-62 = test system: HOP-62
PC-3 = test system: PC-3
SF-539 = test system: SF-539
EKVX = test system: EKVX
SK-OV-3 = test system: SK-OV-3

Measured: GI50

CCOC(=O)c1c(NCc2ccccc2)n(-c2ccccc2)c(=S)n(-c2ccccc2)c1=O
inactive: DU-145 > 100 µM | LOX IMVI > 100 µM | NCI-H522 57.8 µM | MDA-MB-435 > 100 µM | MDA-N > 100 µM | SNB-19 > 100 µM | SN12C > 100 µM | TK-10 > 100 µM | OVCAR-3 > 100 µM | SK-MEL-5 94.6 µM | HL-60 35.6 µM | IGROV-1 > 100 µM | KM12 > 100 µM | NCI-H226 > 100 µM | OVCAR-8 > 100 µM

O=C(O)CCCc1ccc2c(c1)CC1(C2)Cc2ccc(CCCC(=O)O)cc2C1
inactive: HOP-62 > 100 µM | LOX IMVI > 100 µM | NCI-H522 > 100 µM | MDA-MB-435 > 100 µM | MDA-N > 100 µM | PC-3 > 100 µM | SF-539 > 100 µM | SN12C > 100 µM | EKVX > 100 µM | TK-10 > 100 µM | OVCAR-3 > 100 µM | SK-MEL-5 54 µM | SK-OV-3 > 100 µM | HL-60 > 100 µM | IGROV-1 > 100 µM | KM12 > 100 µM | NCI-H226 > 100 µM | OVCAR-8 > 100 µM

CC1(C)CC[C@]2(C(=O)O)CC[C@]3(C)C(=CC[C@@H]4[C@@]5(C)CC[C@H](OC6OC(C(=O)O)C(O)C(O)C6O)C(C)(C)[C@@H]5CC[C@]43C)[C@@H]2C1 (stereo partly drawn)
inactive: DU-145 16.8 µM | HOP-62 18.8 µM | LOX IMVI 19 µM | NCI-H522 19.4 µM | MDA-MB-435 19.2 µM | MDA-N 18.4 µM | PC-3 18.2 µM | SNB-19 22 µM | SN12C 16.8 µM | EKVX 24.5 µM | OVCAR-3 14.2 µM | SK-MEL-5 19.1 µM | SK-OV-3 19.5 µM | HL-60 18.2 µM | IGROV-1 20 µM | KM12 16.5 µM | NCI-H226 18.5 µM | OVCAR-8 20.8 µM

O=C1C(CN2CCCCC2)CCCC1CN1CCCCC1 (stereo not drawn)
inactive: DU-145 17.8 µM | LOX IMVI 16.9 µM | MDA-MB-435 17 µM | MDA-N 16 µM | PC-3 16.1 µM | SF-539 30.2 µM | SN12C 32.7 µM | EKVX 16.2 µM | OVCAR-3 18.6 µM | SK-MEL-5 32.1 µM | SK-OV-3 > 100 µM | IGROV-1 > 56.2 µM | KM12 37 µM | NCI-H226 > 52.2 µM | OVCAR-8 18.5 µM

COC(=O)N[C@@H]1C[C@H]2CC[C@]1(O[Si](C(C)C)(C(C)C)C(C)C)C(=O)C2
inactive: DU-145 > 100 µM | HOP-62 21.4 µM | NCI-H522 8.59 µM | MDA-MB-435 17.9 µM | MDA-N 21.9 µM | PC-3 12.9 µM | SNB-19 18.1 µM | SN12C 33.5 µM | EKVX 15.4 µM | TK-10 14.7 µM | OVCAR-3 17.7 µM | SK-MEL-5 16.4 µM | SK-OV-3 21.3 µM | HL-60 16.9 µM | IGROV-1 13.6 µM | KM12 18.2 µM | NCI-H226 14.2 µM | OVCAR-8 23.1 µM

Cc1ccc2c(O)cc(-c3cc4ccccc4s3)nc2n1
inactive: DU-145 > 100 µM | HOP-62 31.7 µM | LOX IMVI > 94.6 µM | NCI-H522 33.9 µM | MDA-MB-435 > 88.1 µM | MDA-N 98.9 µM | PC-3 > 100 µM | SNB-19 > 100 µM | SN12C > 100 µM | EKVX 27.4 µM | TK-10 > 95.9 µM | OVCAR-3 > 100 µM | SK-MEL-5 74.5 µM | SK-OV-3 45.1 µM | HL-60 > 100 µM | IGROV-1 6.65 µM | KM12 > 73.1 µM | NCI-H226 14.2 µM | OVCAR-8 30.3 µM

N/N=C(\C(=O)Nc1ccc([N+](=O)[O-])cc1)C(C1=Nc2cc([N+](=O)[O-])ccc2NC1)[N+](=O)[O-] (stereo not drawn)
inactive: HOP-62 > 100 µM | LOX IMVI 74.8 µM | NCI-H522 25.3 µM | MDA-MB-435 88.3 µM | MDA-N > 100 µM | PC-3 > 100 µM | SF-539 > 100 µM | SNB-19 > 100 µM | SN12C > 100 µM | EKVX > 100 µM | TK-10 > 100 µM | OVCAR-3 > 100 µM | SK-MEL-5 74.1 µM | SK-OV-3 > 100 µM | HL-60 > 100 µM | IGROV-1 > 100 µM | KM12 32 µM | NCI-H226 > 100 µM | OVCAR-8 > 100 µM

CCOC(=O)C1CN(C2CC2)CCC1=O (stereo not drawn)
inactive: DU-145 > 100 µM | HOP-62 > 100 µM | LOX IMVI > 100 µM | MDA-MB-435 > 100 µM | MDA-N > 100 µM | PC-3 > 100 µM | SNB-19 > 100 µM | SN12C > 100 µM | EKVX > 100 µM | TK-10 > 100 µM | OVCAR-3 > 100 µM | SK-MEL-5 > 100 µM | SK-OV-3 > 100 µM | HL-60 > 100 µM | IGROV-1 > 100 µM | KM12 > 100 µM | NCI-H226 > 100 µM | OVCAR-8 > 100 µM

O=c1c2cccnc2[s+]([O-])n1Cc1ccccc1 (stereo not drawn)
inactive: DU-145 > 100 µM | NCI-H522 > 100 µM | MDA-MB-435 > 100 µM | MDA-N > 100 µM | SF-539 > 100 µM | SNB-19 > 100 µM | SN12C > 100 µM | EKVX > 100 µM | TK-10 > 100 µM | SK-MEL-5 > 100 µM | SK-OV-3 > 100 µM | HL-60 > 10 µM | IGROV-1 > 100 µM | KM12 > 100 µM | NCI-H226 > 100 µM | OVCAR-8 > 100 µM

N#Cc1nc(C(O)c2ccccc2)oc1N (stereo not drawn)
inactive: DU-145 > 100 µM | HOP-62 > 100 µM | LOX IMVI > 100 µM | NCI-H522 76.6 µM | MDA-N > 100 µM | PC-3 > 100 µM | SF-539 > 100 µM | SNB-19 > 100 µM | SN12C > 100 µM | EKVX > 100 µM | TK-10 > 100 µM | OVCAR-3 > 100 µM | SK-MEL-5 > 100 µM | SK-OV-3 > 100 µM | HL-60 > 100 µM | IGROV-1 > 100 µM | KM12 > 100 µM | NCI-H226 > 100 µM | OVCAR-8 > 100 µM

Cc1ccc(CCCC(=O)O)cc1C
inactive: DU-145 > 100 µM | HOP-62 > 100 µM | LOX IMVI > 100 µM | NCI-H522 > 100 µM | MDA-MB-435 > 100 µM | MDA-N > 100 µM | PC-3 > 100 µM | SNB-19 > 100 µM | SN12C > 100 µM | EKVX > 100 µM | TK-10 > 100 µM | OVCAR-3 > 100 µM | SK-MEL-5 > 100 µM | HL-60 > 100 µM | IGROV-1 > 100 µM | KM12 > 100 µM | NCI-H226 > 100 µM | OVCAR-8 > 100 µM
